By IC50 is commonly meant the concentration that inhibits the measured activity by half.

We go through nine compounds from PMC10456296, “Trichoderols B-G, Six New Lipids from the Marine Algicolous Fungus Trichoderma sp. Z43” (Marine Drugs, 2023).

One data set deals with Fusarium graminearum. Description: microbe, parasite or virus in culture. Format: cell-based. The conditions noted are these: 48 h, read-out: MIC Fusarium graminearum.
The test system of a further data set is Gaeumannomyces graminis. Put plainly: Antifungal activity, microdilution method in 96-well plate. It is filed as cell-based. To be noted: 48 h, read-out: MIC Gaeumannomyces graminis.
A further data set has as its system Glomerella cingulata. The description is as above. Format: cell-based. To be noted: Colletotrichum gloeosporioides; microdilution in PDB, 28 °C, 48 h. On the technique in general: Broth dilution looks for growth in wells or tubes with falling amounts of substance.
A further data set deals with Amphidinium carterae. Description: Antimicroalgal activity, inhibition of marine phytoplankton. The conditions noted are these: for IC50: Amphidinium carterae, 24 h, read-out: IC50 Amphidinium carterae.
In data set [1] the test system is Heterocapsa circularisquama. Described as above. The conditions noted are these: for IC50: Heterocapsa circularisquama, 24 h, read-out: IC50 Heterocapsa circularisquama.
Another data set concerns Heterosigma akashiwo. The description is as above. To be noted: for IC50: Heterosigma akashiwo, 24 h, read-out: IC50 Heterosigma akashiwo.
The next data set deals with Prorocentrum donghaiense. The data set is described as above. The conditions noted are these: for IC50: Prorocentrum donghaiense, 24 h, read-out: IC50 Prorocentrum donghaiense.
Another data set has as its system Artemia salina. Description: Brine shrimp lethal activity. Format: in vivo. The conditions noted are these: 24 h. The protocol:
The inhibition of the brine shrimp Artermia salina was assayed according to the procedures described in our previous report. In brief, brine shrimp eggs were left to hatch in sea water for 48 h at 25 °C under natural light. […] The lethality was observed after 24 h of cultivation.

In data set [2] the test system is three phytopathogenic fungi (Fusarium graminearum, Gaeumannomyces graminis, and Glomerella cingulata). Put plainly: organism not typed. The conditions noted are these: for MIC: read-out: MIC against the three phytopathogenic fungi tested, summary over three fungi; for antifungal activity (in words): summary over three fungi. Format: cell-based.

≈ marks a conversion by molar mass, not a printed value. Like-named read-outs stand apart in the source and are kept apart here. A value given as a limit tells only on which side of the number the result lay.

`C/C=C/CCC(O)C(O)C/C=C/CO` (stereo not drawn) [Compound 6, (2E,9E)-undeca-2,9-dien-1,5,6-triol]: the MIC is greater than 256 µg/mL with Fusarium graminearum; greater than 256 µg/mL in the data set with Gaeumannomyces graminis (microdilution in PDB, 28 °C); greater than 256 µg/mL against Glomerella cingulata. The IC50 in the data set with Amphidinium carterae is 44 µg/mL (≈ 220 µM); in [1] it was greater than 100 µg/mL; in the data set on Heterosigma akashiwo it was 82 µg/mL (≈ 409 µM); in the data set on Prorocentrum donghaiense it was greater than 100 µg/mL.

In the case of `[K+].[K+].[O]=[Cr](=[O])([O-])[O][Cr](=[O])(=[O])[O-]` [Compound K2Cr2O7, K2Cr2O7, reference compound], the “Lethal Rate (at 100 μg/mL) Artemia salina” value in the data set on Artemia salina came out at 100%. Besides, the “IC50 Amphidinium carterae” value in the data set with Amphidinium carterae (live cells counted after 24 h) stood at 1.2 µg/mL. For the same compound, the “IC50 Heterocapsa circularisquama” value in data set [1] (live cells counted after 24 h) worked out at 1.0 µg/mL. For the same compound, the “IC50 Heterosigma akashiwo” value in the data set on Heterosigma akashiwo (live cells counted after 24 h) worked out at 0.8 µg/mL. For the same compound, in the data set on Prorocentrum donghaiense (live cells counted after 24 h), the “IC50 Prorocentrum donghaiense” value worked out at 1.4 µg/mL.

For the compound `C/C=C/CCC(O)C(O)C/C=C/CC(C)O` (stereo not drawn) [Compound 5, (4E,11E)-trideca-4,11-dien-2,7,8-triol], the MIC in the data set with Fusarium graminearum was greater than 256 µg/mL; in the data set on Gaeumannomyces graminis (microdilution in PDB, 28 °C), greater than 256 µg/mL; in the data set with Glomerella cingulata, greater than 256 µg/mL. Also, the IC50 in the data set with Amphidinium carterae is 50 µg/mL (≈ 219 µM); in data set [1] it was 68 µg/mL (≈ 298 µM); in the data set on Heterosigma akashiwo, greater than 100 µg/mL; in the data set on Prorocentrum donghaiense it was greater than 100 µg/mL.

For `C/C=C/CCC(O)C(O)C/C=C/C(O)C(C)O` (stereo not drawn) [Compound 4, (4E,11E)-trideca-4,11-diene-2,3,7,8-tetraol], the MIC is greater than 256 µg/mL in the data set with Fusarium graminearum; 256 µg/mL (≈ 1050 µM) in the data set on Gaeumannomyces graminis (microdilution in PDB, 28 °C); 128 µg/mL (≈ 524 µM) in the data set with Glomerella cingulata; no less than 64 µg/mL in [2]. Moreover, the “antifungal activity (in words)” value in [2] is recorded as “weak antifungal activity”. For the same compound, the IC50 is greater than 100 µg/mL with Amphidinium carterae, greater than 100 µg/mL in data set [1], 53 µg/mL (≈ 217 µM) with Heterosigma akashiwo and 42 µg/mL (≈ 172 µM) in the data set on Prorocentrum donghaiense.

Regarding `C/C=C/CC[C@@H](O)[C@@H](O)C/C=C/[C@@H](O)[C@H](C)O` [Compound 7, triharzianin B], the MIC with Fusarium graminearum was greater than 256 µg/mL; with Gaeumannomyces graminis (microdilution in PDB, 28 °C) it was 256 µg/mL (≈ 1050 µM); with Glomerella cingulata, 128 µg/mL (≈ 524 µM); in data set [2], no less than 64 µg/mL. In data set [2], the “antifungal activity (in words)” value was “weak antifungal activity”. For the same compound, the IC50 with Amphidinium carterae was greater than 100 µg/mL; in data set [1], greater than 100 µg/mL; in the data set on Heterosigma akashiwo, 49 µg/mL (≈ 201 µM); in the data set with Prorocentrum donghaiense, 30 µg/mL (≈ 123 µM).

On to `C[C@@H]1[C@H](O)[C@@H](C)/C=C/C=C/C=C/C=C/C=C/C=C/C=C/[C@H](O[C@@H]2O[C@H](C)[C@@H](O)[C@H](N)[C@@H]2O)C[C@@H]2O[C@](O)(C[C@@H](O)C[C@@H](O)[C@H](O)CC[C@@H](O)C[C@@H](O)CC(=O)O[C@H]1C)C[C@H](O)[C@H]2C(=O)O` [amphotericin B, reference compound], for which the MIC is 2 µg/mL (≈ 2.16 µM) in the data set with Fusarium graminearum; 2 µg/mL (≈ 2.16 µM) with Gaeumannomyces graminis (microdilution in PDB, 28 °C); 1 µg/mL (≈ 1.08 µM) in the data set with Glomerella cingulata.

As to `C/C=C/CCC(O)C(O)/C=C/C=C/C(O)CO` (stereo not drawn) [Compound 2, (3E,5E,11E)-trideca-3,5,11-trien-1,2,7,8-tetraol], the MIC was greater than 256 µg/mL in the data set on Fusarium graminearum; greater than 256 µg/mL in the data set with Gaeumannomyces graminis (microdilution in PDB, 28 °C); greater than 256 µg/mL in the data set with Glomerella cingulata. Besides, the IC50 with Amphidinium carterae was 61 µg/mL (≈ 252 µM); in data set [1], greater than 100 µg/mL; in the data set on Heterosigma akashiwo it was 43 µg/mL (≈ 177 µM); with Prorocentrum donghaiense, 37 µg/mL (≈ 153 µM).

Regarding `C=CCC(O)/C=C/C(O)C(O)CC/C=C/C` (stereo not drawn) [Compound 3, (5E,11E)-trideca-1,5,11-trien-4,7,8-triol], the MIC is greater than 256 µg/mL in the data set with Fusarium graminearum; greater than 256 µg/mL with Gaeumannomyces graminis (microdilution in PDB, 28 °C); greater than 256 µg/mL in the data set on Glomerella cingulata. Further, the concentration for half-maximal inhibition (IC50) is 66 µg/mL (≈ 292 µM) in the data set on Amphidinium carterae, 78 µg/mL (≈ 345 µM) in [1], greater than 100 µg/mL in the data set on Heterosigma akashiwo and greater than 100 µg/mL in the data set on Prorocentrum donghaiense.

For `CC=CCCC1(O)OC(C(O)C=CC)CC1O` (stereo not drawn) [Compound 1, Trichoderol B], the MIC in the data set with Fusarium graminearum is 256 µg/mL (≈ 1060 µM); with Gaeumannomyces graminis, 256 µg/mL (≈ 1060 µM); in the data set with Glomerella cingulata, 64 µg/mL (≈ 264 µM); in [2], 64 to 256 µg/mL (≈ 264 to 1060 µM). In addition, the “antifungal activity (in words)” value in data set [2] is reported as “weak antifungal activity”. The IC50 with Amphidinium carterae came out at 15 µg/mL (≈ 61.9 µM); in data set [1] it was 24 µg/mL (≈ 99 µM); in the data set on Heterosigma akashiwo, 28 µg/mL (≈ 116 µM); in the data set on Prorocentrum donghaiense, 22 µg/mL (≈ 90.8 µM).
